Values of other authors in patent US20140148378A1, “ANTIBACTERIAL PEPTIDES” (THE REGENTS OF THE UNIVERSITY OF CALIFORNIA, priority 2012, published 2014).

What was measured:
[1] = from bioactive peptide databases / literature
[2] = lactoferricin versus human lactoferrin

| Substance | Known activity of overlapping literature bioactive peptide [1] | bactericidal effects relative to the parent protein [2] |
| --- | --- | --- |
| QELLLNPTHQYPVTQPLAPVHNPISV (listed as Homo sapiens) [SEQ ID NO: 506] | Antibacterial | – |
| QPTIPFFDPQIPK (listed as Homo sapiens) [SEQ ID NO: 505] | Immuno- | – |
| YQRRPAIAINNPYVPRTYYANPAVVRPHAQIPQRQYLPNSHPPTVVRRPNLHPSF (listed as Homo sapiens) [SEQ ID NO: 504] | Antibacterial | – |
| lactoferricin | – | 10-100 times |
